According to ChEMBL document CHEMBL4483862, “Open-source discovery of chemical leads for next-generation chemoprotective antimalarials” (2018):

System: Plasmodium berghei
Assay: Luciferase/luciferin-expressing antifolate-resistant parasites were used to infect a culture of HepG2 cells that were pre-incubated with compounds. Infected hepatocytes emit light due to the luciferase reaction. Assay results are presented as the percent inhibition of light emission compared to control. […]
Type: functional
Conditions: sporozoite; for IC90: read-out: LUCIFERASE INFECTION ASSAY - IC90
[1] = read-out: LUCIFERASE INFECTION ASSAY - IC50

SMILES	IC90	IC50 [1]	further results
CC(C)Cn1c(-c2ccccc2)nc2c(c(=O)c3ccccc3n2C)c1=O	> 9.18 µM	–	IC50 (PBLUC_HILL_SLOPE 2.45, PBLUC_R_SQUARED 0.0531, read-out: LUCIFERASE INFECTION ASSAY - IC50): 6.49 µM
CC(C)(C)c1cc(CCC(=O)NNC(=S)NC(=O)c2ccccc2)cc(C(C)(C)C)c1O	3.76 µM	–	IC50 (HEPG2TOX_HILL_SLOPE 3.85, HEPG2TOX_R_SQUARED 0.996, PBLUC_HILL_SLOPE 11.4, PBLUC_R_SQUARED 0.664, read-out: LUCIFERASE INFECTION ASSAY - IC50): 3.1 µM
O=C(CSc1nnc(-c2ccco2)n1-c1ccc(OCc2ccccc2)cc1)c1ccc(Cl)cc1	> 6.57 µM	> 6.57 µM	–
CCOc1ccc(C(=O)Nc2nc3ccccn3c2C(=O)NC(C)C)cc1	8.41 µM	–	IC50 (HEPG2TOX_HILL_SLOPE 0.179, HEPG2TOX_R_SQUARED 0.152, PBLUC_HILL_SLOPE 1.27, PBLUC_R_SQUARED 0.525, read-out: LUCIFERASE INFECTION ASSAY - IC50): 1.5 µM
CCC(=O)Nc1nc(C)c(-c2csc(Nc3ccc(N(C)C)cc3)n2)s1	> 8.52 µM	–	IC50 (FFLUC_HILL_SLOPE 5.2, FFLUC_R_SQUARED 0.393, read-out: LUCIFERASE INFECTION ASSAY - IC50): > 8.52 µM
COc1c(Br)cc([N+](=O)[O-])c(OC)c1C(=O)NC(=O)Nc1cc(C(F)(F)F)cc(C(F)(F)F)c1	5.15 µM	–	IC50 (HEPG2TOX_HILL_SLOPE 8.68, HEPG2TOX_R_SQUARED 0.501, PBLUC_HILL_SLOPE 19.7, PBLUC_R_SQUARED 0.399, read-out: LUCIFERASE INFECTION ASSAY - IC50): 4.61 µM
CC(C)CNC(=O)c1cc(Br)ccc1O	> 10 µM	> 10 µM	–
COc1ccc(NS(=O)(=O)c2ccc3oc(SC(C)C(=O)N4CCNC4=O)nc3c2)cc1 (centres undefined)	> 10 µM	> 10 µM	–
CC(=O)c1ccc(C#Cc2ccccc2)s1	> 14.6 µM	> 14.6 µM	–
Clc1cccc(-c2cnn3c(NCCCN4CCOCC4)ccnc23)c1	> 8.87 µM	–	IC50 (PBLUC_HILL_SLOPE 1.37, PBLUC_R_SQUARED 0.567, read-out: LUCIFERASE INFECTION ASSAY - IC50): 3.66 µM
O=C(NCCSCc1c(F)cccc1Cl)c1cccs1	> 10 µM	–	IC50 (PBLUC_HILL_SLOPE 2.01, PBLUC_R_SQUARED 0.48, read-out: LUCIFERASE INFECTION ASSAY - IC50): 3.94 µM
COCCCNC1=NN=C(c2cc(C)n(-c3ccccc3F)c2C)CS1	9.7 µM	–	IC50 (HEPG2TOX_HILL_SLOPE 3.65, HEPG2TOX_R_SQUARED 0.669, PBLUC_HILL_SLOPE 1.05, PBLUC_R_SQUARED 0.653, read-out: LUCIFERASE INFECTION ASSAY - IC50): 1.2 µM
Cc1cc(Cl)ccc1NC(=O)c1cn(C)nc1C(F)(F)F	> 10 µM	> 10 µM	–
COc1cc(-c2cc(-c3cc(OC)c(OC)c(OC)c3)cnc2N)ccc1O	6.84 µM	–	IC50 (PBLUC_HILL_SLOPE 4.32, PBLUC_R_SQUARED 0.78, read-out: LUCIFERASE INFECTION ASSAY - IC50): 4.12 µM
CCc1c(C(=O)Nc2nc(C)cs2)cnn1-c1cccc(Cl)c1	1.14 µM	–	IC50 (HEPG2TOX_HILL_SLOPE 7.81, HEPG2TOX_R_SQUARED 0.827, PBLUC_HILL_SLOPE 1.59, PBLUC_R_SQUARED 0.7, read-out: LUCIFERASE INFECTION ASSAY - IC50): 0.286 µM
COc1ccc(Cc2nc(Oc3ccc(C(C)=O)cc3OC)c3c4c(sc3n2)CCC4)cc1OC	> 10 µM	–	IC50 (HEPG2TOX_HILL_SLOPE 23.6, HEPG2TOX_R_SQUARED 0.901, PBLUC_HILL_SLOPE 2.45, PBLUC_R_SQUARED 0.768, read-out: LUCIFERASE INFECTION ASSAY - IC50): 4.61 µM
Oc1cc(-c2ccccc2)nc2ccccc12	0.307 µM	–	IC50 (HEPG2TOX_HILL_SLOPE 0.704, HEPG2TOX_R_SQUARED 0.901, PBLUC_HILL_SLOPE 3.71, PBLUC_R_SQUARED 0.852, read-out: LUCIFERASE INFECTION ASSAY - IC50): 0.17 µM
CN(C)c1ccc(C(c2ccc(OC(F)(F)F)cc2)c2ccc(N(C)C)cc2)cc1	3.56 µM	–	IC50 (FFLUC_HILL_SLOPE 27.2, FFLUC_R_SQUARED 0.132, HEPG2TOX_HILL_SLOPE 6.02, HEPG2TOX_R_SQUARED 0.417, PBLUC_HILL_SLOPE 10.6, PBLUC_R_SQUARED 0.521, read-out: LUCIFERASE INFECTION ASSAY - IC50): 2.89 µM
Cc1cc(SCC(=O)NNC(=O)c2ccc(NS(=O)(=O)c3cccs3)cc2)nc2ccccc12	> 10 µM	> 10 µM	–
CCOC(=O)c1ccc(N2CCN(C(=O)CCc3cc(C(C)(C)C)c(O)c(C(C)(C)C)c3)CC2)nc1	> 10 µM	> 10 µM	–
CC(C)C(Nc1ccc(C(F)(F)F)cc1Cl)C(=O)Nc1nc(-c2ccccc2Cl)cs1 (centres undefined)	6.73 µM	–	IC50 (HEPG2TOX_HILL_SLOPE 4.1, HEPG2TOX_R_SQUARED 0.707, PBLUC_HILL_SLOPE 4.35, PBLUC_R_SQUARED 0.154, read-out: LUCIFERASE INFECTION ASSAY - IC50): 4.06 µM

SMILES	IC90	IC50 [1]	further results
OCc1ccc(-c2cnc3ccc(-c4cccc(F)c4)nn23)cc1	8.2 µM	–	IC50 (FFLUC_HILL_SLOPE 16.8, FFLUC_R_SQUARED 0.417, HEPG2TOX_HILL_SLOPE 9.34, HEPG2TOX_R_SQUARED 0.811, PBLUC_HILL_SLOPE 2.28, PBLUC_R_SQUARED 0.536, read-out: LUCIFERASE INFECTION ASSAY - IC50): 3.13 µM
COc1ccc(-c2cnc3cnc(-c4ccc(C(=O)NC5CC5)cc4)cn23)cn1	> 8.56 µM	–	IC50 (PBLUC_HILL_SLOPE 21.9, PBLUC_R_SQUARED 0.538, read-out: LUCIFERASE INFECTION ASSAY - IC50): 7.8 µM
Cc1nn(-c2ccccc2)c2nc(-c3cccs3)cc(C(=O)Nc3cc(Cl)ccc3N3CCN(C)CC3)c12	9.44 µM	–	IC50 (PBLUC_HILL_SLOPE 12, PBLUC_R_SQUARED 0.52, read-out: LUCIFERASE INFECTION ASSAY - IC50): 7.85 µM
CCCCCCCCCCCc1nnc(SCc2ccc(C)cc2)n1-c1ccccc1C(F)(F)F	> 6.55 µM	> 6.55 µM	–
CC(C)(C)NC(=S)N/N=C/c1cc([N+](=O)[O-])ccc1O	11.1 µM	–	IC50 (HEPG2TOX_HILL_SLOPE 9.08, HEPG2TOX_R_SQUARED 0.437, PBLUC_HILL_SLOPE 15.5, PBLUC_R_SQUARED 0.332, read-out: LUCIFERASE INFECTION ASSAY - IC50): 9.61 µM
Cc1ccc(C(=O)OCC(=O)c2cc(C)n(-c3cccc(C(F)(F)F)c3)c2C)cc1NC(=O)c1ccco1	> 10 µM	–	IC50 (FFLUC_HILL_SLOPE 14.7, FFLUC_R_SQUARED 0.458, read-out: LUCIFERASE INFECTION ASSAY - IC50): > 10 µM
O=C1CCc2cc(-c3csc(NC(=O)c4ccc(-n5cnc6ccccc65)cc4)n3)ccc2N1	3.68 µM	–	IC50 (PBLUC_HILL_SLOPE 2.11, 11.5, PBLUC_R_SQUARED 0.409, 0.367, read-out: LUCIFERASE INFECTION ASSAY - IC50): 3.63 µM
c1ccc(-c2cc(NCc3cccs3)nc3ccccc23)cc1	> 10 µM	> 10 µM	–
COc1cccc(/C=C(\c2nc3ccccc3[nH]2)c2nc3ccccc3s2)c1	> 10 µM	> 10 µM	–
O=C(Nc1cccc(C(F)(F)F)c1)n1nccc1-c1cc(-c2ccccc2)no1	3.32 µM	–	IC50 (HEPG2TOX_HILL_SLOPE 0.0838, HEPG2TOX_R_SQUARED 0.0659, PBLUC_HILL_SLOPE 13.2, PBLUC_R_SQUARED 0.221, read-out: LUCIFERASE INFECTION ASSAY - IC50): 2.81 µM
O=C(OCN1C(=O)c2ccccc2C1=O)c1ccc(OCC2CCCO2)cc1 (centres undefined)	> 10 µM	> 10 µM	–
Cc1ccccc1OCCN(C)C(=O)NCCc1cccs1	4.09 µM	–	IC50 (HEPG2TOX_HILL_SLOPE 3.22, HEPG2TOX_R_SQUARED 0.951, PBLUC_HILL_SLOPE 11.1, PBLUC_R_SQUARED 0.17, read-out: LUCIFERASE INFECTION ASSAY - IC50): 3.35 µM
O=S(=O)(Nc1ccc(Cl)cc1)c1ccc2nc(-c3ccccn3)[nH]c2c1	8.29 µM	–	IC50 (HEPG2TOX_HILL_SLOPE 9.44, HEPG2TOX_R_SQUARED 0.935, PBLUC_HILL_SLOPE 6.04, PBLUC_R_SQUARED 0.808, read-out: LUCIFERASE INFECTION ASSAY - IC50): 5.77 µM
CCc1sc(C(=O)Nc2cnc3ccccc3c2)cc1C	> 10 µM	–	IC50 (HEPG2TOX_HILL_SLOPE 1.13, HEPG2TOX_R_SQUARED 0.365, PBLUC_HILL_SLOPE 0.275, PBLUC_R_SQUARED 0.613, read-out: LUCIFERASE INFECTION ASSAY - IC50): 0.46 µM
Cc1cc(Cl)ccc1NC(N)=NN	> 10.1 µM	> 10.1 µM	–
CCn1c2ccccc2c2cc(NC(=O)c3ccncc3)ccc21	3.82 µM	–	IC50 (HEPG2TOX_HILL_SLOPE 3.45, HEPG2TOX_R_SQUARED 0.806, PBLUC_HILL_SLOPE 11.3, PBLUC_R_SQUARED 0.493, read-out: LUCIFERASE INFECTION ASSAY - IC50): 3.14 µM
O=S(=O)(c1ccc(NC(=S)N/N=C2\CC(c3ccccc3)Oc3ccccc32)cc1)N1CCOCC1 (centres undefined)	> 10 µM	8.98 µM	–
O=C(Nc1ccccc1Oc1ccccc1Cl)c1cc2ccccc2c(=O)[nH]1	1.25 µM	–	IC50 (HEPG2TOX_HILL_SLOPE 0.764, HEPG2TOX_R_SQUARED 0.704, PBLUC_HILL_SLOPE 15.6, PBLUC_R_SQUARED 0.531, read-out: LUCIFERASE INFECTION ASSAY - IC50): 1.09 µM
COCCCN1C(=O)N(Cc2ccccc2)C(=O)C12CCN(Cc1cccc(C(F)(F)F)c1)CC2	> 6.74 µM	–	IC50 (HEPG2TOX_HILL_SLOPE 5.47, HEPG2TOX_R_SQUARED 0.316, read-out: LUCIFERASE INFECTION ASSAY - IC50): > 6.74 µM
Clc1ccc(N/N=C/c2sccc2Oc2ccccc2)cc1	> 10 µM	> 10 µM	–
O=C(c1cn(-c2ccccc2)nc1-c1cc2ccccc2oc1=O)n1nnc2ccccc21	3.36 µM	3.27 µM	–
